According to patent US10046050B2, “Targeting immunotherapy for amyloidosis” (UNIVERSITY OF TENNESSEE RESEARCH FOUNDATION, priority 2014, dated 2018):
pKd: −log10 of the molar value. Read-outs that look alike come from different tables or passages of the source. One block for each substance: values may come before it.

Columns and labels:
healthy tissues = assay: In vivo ^125I-p66 in healthy WT mice (microautoradiography); details: autoradiography
Protocol: Imaging was performed using WT or AA amyloid mice (n=3) that were injected with ˜5 μg of ^125I-p66, 125 μCi in the lateral tail vein. After the appropriate uptake time (data for 4 and 72 h pi shown), mice were euthanized by isoflurane inhalation overdose. SPECT images were acquired using an Inveon trimodality imaging platform (Siemens Preclinical Solution, Knoxville, Tenn.) running Inveon Acquisition Workplace software (ver. 2.0). Low energy (^125I; 25-45 keV) gamma photons were acquired at each of 60, 16-sec projections with 90 mm of bed travel. A 1 mm-diameter, 5-pinhole (Mouse Whole Body) collimator was used at 30 mm from the center of the field of view. Data were reconstructed post hoc onto an 88×88×312 matrix with isotropic 0.50 mm voxels using a 3D ordered subset expectation maximization (OSEM) algorithm (8 iterations; 6 subsets).
For autoradiography, 6-μm-thick sections were cut from formalin-fixed, paraffin-embedded blocks, containing tissues from mice that had received […]. The sections were placed on Plus microscope slides (Fisher Scientific), dipped in NTB-2 emulsion (Eastman Kodak), stored in the dark, and developed after a 4 day exposure. Each section was counterstained with hematoxylin and eosin.
All tissue sections were examined using a Leica DM500 light microscope fitted with cross-polarizing filters (for Congo red). […]

[1] = p66 and 11-1F4 on BSA-blocked wells without fibrils; format: binding; details: absence of fibrils
^125I-7D8 = assay: Pulldown assay with peptope-coated polystyrene beads; format: binding; details: peptope conjugated to polystyrene beads; ˜0.065 nM ^125I-7D8
Protocol: The 7D8 antibody (15 μg) was radiolabeled with 0.5 mCi of reductant-free iodine-125 (^125I, Perkin Elmer) using limiting amounts of chloramine T (10 μg) and suspended in PBS containing 0.1% gelatin as carrier protein. Unbound radioisotope and protein aggregates were removed from the preparation by size-exclusion liquid chromatography using an Ultrogel AcA34 solid phase (Amersham Pharmacia). Fractions containing ^125I-7D8 were pooled for pull-down assays. The relative radiopurity of the preparation was assessed by SDS/PAGE (4-12% acrylamide; Novex) followed by imaging using a phosphor-imager (Cyclone).
Pulldown assays were performed using ^125I-7D8 using, as a substrate, peptope-conjugated to polystyrene beads, synthetic fibrils (Aβ[1-40] or IAPP) or human ATTR amyloid extracts (transthyretin-associated amyloid [ATTR] was previously isolated from the organs of three different patients with Appalachian mutation—Thr60Ala). […] The sample was mixed end over end for 1 h at room temperature, and the bound and free ^125I-7D8 were then separated by serial centrifugations at 16,000×g and the percent bound calculated immunoreactivity=[boundcpm/(boundcpm+freecpm)]×100 Pulldown assays using synthetic fibrils and amyloid extracts were performed essentially as described herein. […]

mAb 7D8 = assay: Surface plasmon resonance of mAb 7D8 binding to amino-coupled peptopes
Protocol: Analyses were performed using a BIAcore X surface plasmon resonance instrument (GE Healthcare) and all reagents were obtained from GE Healthcare. For chip preparation, the peptides were attached to CM-5 chips using the amino-coupling method supplied with the instrument software. Briefly, chips were activated by injection (35 μL) of a mixture of ECD/NHS at a flow rate of 5 μL/min. Immediately thereafter, 35 μL of the test peptide (peptope p75, p76, p77, or p78), diluted to 1 μg/mL in NaOAc buffer, pH 5.5, was injected. After peptide coupling, the remaining active groups on the chip were blocked by injection of 35 μL of 1 M ethanolamine-HCl pH 8.5. Test peptides p75, p76, p77, or p78 were coupled to the Fc-1 channel and peptide p5, which served as a control, was coupled to the Fc-2 channel. A sensorgram was initiated on each chip in HBS-EP buffer at 10 μL per min. An initial regeneration step consisting of a 20 μL injection of pH 2.5 glycine buffer was performed and the baseline allowed to equilibrate. Antibody 7D8 was diluted to a stock of 10 μg/mL in HBS-EP buffer which was further diluted to a 0.4 μg/mL (˜2.7 nM) working dilution immediately before injection. The antibody was injected (50 μL) and the data collected for 200 seconds using a delayed wash cycle. The chip was subjected to a regeneration step before the next test injection. Binding data were extracted from the sensorgram, aligned, and analyzed using the BIAevaluation software by fitting to the following binding models (i) Langmuir, (ii) Langmuir with mass transfer, and (iii) Interaction of a bivalent analyte [A+B→AB; AB+B→AB2].

[2] = Langmuir with Mass Transfer, 7D8 2.7 nM

Substance: KAQKAQAKQAKQAQKAQKAQAKQAKQAQKAQKAQAKQAKQ SVTVVT KHYAAFPENLLI [p66]
- binding of radiolabeled peptide to healthy tissues in vivo (healthy tissues): did not bind to any tissue that was studied
- peptide binding and 11-1F4 reactivity in BSA-blocked wells [1]: no peptide bound and no mAb reactivity was observed

- Rmax (RU) (mAb 7D8; Bivalent Analyte, 7D8 2.7 nM): 4.79E+03 RU
- ka1 (mAb 7D8; Bivalent Analyte, 7D8 2.7 nM): 85300 M⁻¹ s⁻¹
- ka2 (1/RUs) (mAb 7D8; Bivalent Analyte, 7D8 2.7 nM): 8.22E−04 1/RUs
- kd1 (mAb 7D8; Bivalent Analyte, 7D8 2.7 nM): 0.0674 s⁻¹
- kd2 (mAb 7D8; Bivalent Analyte, 7D8 2.7 nM): 0.0628 s⁻¹
- KA (mAb 7D8; [2]): 6.98e+08 M⁻¹
- Req (RU) (mAb 7D8; [2]): 500 RU
- Rmax (RU) (mAb 7D8; [2]): 765 RU
- ka (mAb 7D8; [2]): 5.95e+06 M⁻¹ s⁻¹
- kd (mAb 7D8; [2]): 0.00853 s⁻¹
- kobs (mAb 7D8; [2]): 0.0246 s⁻¹
- kt (RU/(M*s)) (mAb 7D8; [2]): 9.14E+08 RU/(M*s)
- pKd (mAb 7D8; Langmuir with Mass Transfer, 7D8 2.7 nM, read-out: KD): 8.84
- KA (mAb 7D8; Langmuir, 7D8 2.7 nM): 1.59e+08 M⁻¹
- Req (RU) (mAb 7D8; Langmuir, 7D8 2.7 nM): 654 RU
- Rmax (RU) (mAb 7D8; Langmuir, 7D8 2.7 nM): 2.18E+03 RU
- ka (mAb 7D8; Langmuir, 7D8 2.7 nM): 369000 M⁻¹ s⁻¹
- kd (mAb 7D8; Langmuir, 7D8 2.7 nM): 0.00233 s⁻¹
- kobs (mAb 7D8; Langmuir, 7D8 2.7 nM): 0.00333 s⁻¹
- pKd (mAb 7D8; Langmuir, 7D8 2.7 nM, read-out: KD): 8.20
- binding kinetics relative to the other peptopes (mAb 7D8; surface plasmon resonance): slow and reduced off-rate
- pKd (mAb 7D8; text summary of surface plasmon resonance measurements, read-out: dissociation constants (KD)): 8.30 to 9.00
Substance: KAQKAQAKQAKQAQKAQKAQAKQAKQAQHEDT [p75, KAQKAQAKQAKQAQKAQKAQAKQAKQAQHEDT]
- percent of added ^125I-7D8 bound (^125I-7D8): 62.3%
